Activity calls are given as the source filed them. No cut-off for these calls is given here.

The target of data set [1] is Tyrosyl-DNA phosphodiesterase 1 (Homo sapiens, UniProt Q9NUW8). Kind of data set: Inhibition of recombinant human TDP1 measured by real-time oligonucleotide biosensor assay.
Data set [2] can be described thus: Cytotoxicity against human HeLa cells. Type of data set: toxicity, cell-based.
Data set [3] is described as follows: Cytotoxicity against human HEK293-A cells. Type of data set: toxicity, cell-based.
The test system of data set [4] is HeLa. The data set can be described thus: Cytotoxicity against human HeLa cells at 10 uM in presence of 2 to 16 uM topotecan. Type of data set: functional, cell-based.
Data set [5] relates to HeLa. Kind of data set: Synergistic cytotoxicity against human HeLa cells assessed as combination index at 20 uM in presence of 5 uM topotecan. Type of data set: functional.
Data set [6] relates to HeLa. The data set can be described thus: Synergistic cytotoxicity against human HeLa cells assessed as combination index at 5 uM in presence of 5 uM topotecan. Type of data set: functional.

Tyrosyl-DNA phosphodiesterase 1, sequence (Q9NUW8 whole entry): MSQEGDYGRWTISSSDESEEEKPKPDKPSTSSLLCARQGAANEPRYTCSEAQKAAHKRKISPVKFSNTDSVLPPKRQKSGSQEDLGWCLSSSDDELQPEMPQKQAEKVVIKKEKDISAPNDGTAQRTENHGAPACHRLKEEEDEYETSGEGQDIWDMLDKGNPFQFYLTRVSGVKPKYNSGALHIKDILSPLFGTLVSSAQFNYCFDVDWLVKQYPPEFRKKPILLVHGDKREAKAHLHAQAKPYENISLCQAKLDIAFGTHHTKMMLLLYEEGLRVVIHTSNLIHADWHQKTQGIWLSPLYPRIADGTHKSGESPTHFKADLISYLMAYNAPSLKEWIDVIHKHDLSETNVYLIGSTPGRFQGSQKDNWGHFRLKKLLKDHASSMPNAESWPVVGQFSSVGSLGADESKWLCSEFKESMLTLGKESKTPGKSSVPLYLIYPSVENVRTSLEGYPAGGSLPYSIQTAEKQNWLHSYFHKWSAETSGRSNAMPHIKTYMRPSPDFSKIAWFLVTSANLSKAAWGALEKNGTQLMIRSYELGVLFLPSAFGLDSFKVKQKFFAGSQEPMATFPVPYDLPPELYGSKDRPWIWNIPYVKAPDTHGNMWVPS

One may read the IC50 as the concentration that gives 50% inhibition. For `O=C1CSC(c2ccccc2)N1Cc1ccccc1` (stereo not drawn), the IC50 in data set [1] was greater than 100 µM.

As for `CC1=CC[C@@H](CC2SCC(=O)N2Cc2ccccc2)C1(C)C` (stereo partly drawn), in data set [1], the IC50 is greater than 100 µM.

In general, CC50 refers to the concentration at which the toxic effect on the cells reaches its halfway point. Read a low CC50 as harm at low concentration. On to `CC1(C)C2CC=C(COc3ccc(C4SCC(=O)N4Cc4ccccc4)cc3)C1C2` (stereo not drawn), for which the IC50 in data set [1] came out at 1.6 µM. Moreover, the figures for the CC50 in data set [2] and in data set [3] were 74 µM and 51 µM, respectively. The result in the data set with HeLa [4] was Active. In addition, in the data set on HeLa [5], the CI was found to be 0.21.

For `CC(C)CCCC(C)CCOc1ccc(C2SCC(=O)N2Cc2ccccc2)cc1` (stereo not drawn), the IC50 in data set [1] was found to be 1.2 µM. For the same molecule, the cytotoxic concentration (CC50) in data set [2] is 66 µM; in data set [3], greater than 100 µM. Further, in the data set on HeLa [4], the outcome was Active. Also, the CI with HeLa [6] was 0.51; with HeLa [5] it was 0.29.

Take `CC(C)=CCCC(C)CCOc1ccc(C2SCC(=O)N2Cc2ccccc2)cc1` (stereo not drawn): in data set [1], the IC50 is greater than 100 µM.

As to `CC(C)=CCC/C(C)=C/COc1ccc(C2SCC(=O)N2Cc2ccccc2)cc1` (stereo not drawn), the IC50 in data set [1] is 2.9 µM. For the same molecule, the CC50 in data set [2] and in data set [3] was greater than 100 µM each time. Also, the outcome with HeLa [4] was Active. Moreover, in the data set with HeLa [5], the CI came to 0.13.

Consider `CC(C)=CCCC(C)CC1SCC(=O)N1Cc1ccccc1` (stereo not drawn), for which the IC50 in data set [1] was greater than 100 µM.

On to `COc1ccc(C2SCC(=O)N2Cc2ccccc2)cc1` (stereo not drawn), for which the IC50 in data set [1] was greater than 100 µM.

Turning to `CC(=O)C1=C(O)C=C2Oc3c(-c4csc(N/N=C/CC(C)CCC=C(C)C)n4)c(O)c(C)c(O)c3[C@@]2(C)C1=O` (stereo partly drawn), in data set [1], the IC50 is 0.016 µM.

For the molecule `COc1cnc2c(c1)C(=O)c1c-2n(CCCNC2=NCCS2)c(=O)c2cc([N+](=O)[O-])ccc12`, the IC50 in data set [1] worked out at 12 µM.

With `CC1(C)C2CC=C(C3SCC(=O)N3Cc3ccccc3)C1C2` (stereo not drawn), the IC50 in data set [1] was greater than 100 µM.

As to `CC1(C)C2CC=C(CCOc3ccc(C4SCC(=O)N4Cc4ccccc4)cc3)C1C2` (stereo not drawn), in data set [1], the IC50 stood at 2.1 µM. Further, the CC50 in data set [2] and in data set [3] was greater than 100 µM each time. Also, the result with HeLa [4] was Active. The CI with HeLa [6] is given as 0.32; with HeLa [5], 0.21.

Regarding `CC1=CC[C@@H](CCOc2ccc(C3SCC(=O)N3Cc3ccccc3)cc2)C1(C)C` (stereo partly drawn), the IC50 in data set [1] was 1.2 µM. Besides, the CC50 was found to be 79 µM in data set [2] and 90 µM in data set [3]. In addition, in the data set with HeLa [4], the result was Active. In addition, the CI in the data set on HeLa [6] was 0.25; in the data set with HeLa [5], 0.16.

Consider `CC(C)CCCC(C)CC1SCC(=O)N1Cc1ccccc1` (stereo not drawn), for which, in data set [1], the half-maximal inhibitory concentration (IC50) is greater than 100 µM.

For `CC1(C)C2CC=C(CC3SCC(=O)N3Cc3ccccc3)C1C2` (stereo not drawn), the IC50 in data set [1] is greater than 100 µM.

Values taken from ChEMBL document CHEMBL5104149, “Monoterpene substituted thiazolidin-4-ones as novel TDP1 inhibitors: Synthesis, biological evaluation and docking” (Bioorg Med Chem Lett, 2022).
